Assay results published in patent EP2008653A1, “Serotonergic compounds for treating neuronal illnesses” (Charité-Universitätsmedizin Berlin, priority 2007, dated 2008).

System: fokalen Ischämie in Mäusen
Test: Mouse model of focal ischemia (30 min MCAo/reperfusion), overall outcome
Format: in vivo, Mäuse
Conditions: Mirtazapin 20 mg/kg i.p. starting 7 days after MCAo/reperfusion
Source text: Die erfindungsgemäßen neuroprotektiven und neuroregenerativen/neuroplastischen Effekte von SSRI auf neuronale Krankheiten wurde anhand eines anerkannten Tiermodells zur fokalen Ischämie in Mäusen untersucht. […] Tag nach der Induktion der Ischämie einsetzte.
Anschließend wurden die SRRI Effekte auf das Volumen der ischämischen Läsionen ausgewertet. Ferner wurden die Tiere Standard-Verhaltenstests unterzogen. Zudem wurden die Konzentrationen ausgewählter Neurotransmitter erfaßt.
Die Tierversuche wurden nach den Maßgaben des Tierschutzgesetzes in Übereinstimmung mit institutionellen und internationalen Richtlinien durchgeführt. Männliche 12936/SvEv-Mäuse (18-20 g, Bundesamt für Gesundheitsschutz Berlin) wurden in Gruppen von 4-5 Mäusen pro Käfig in Standardlaborkäfigen bei einer Umgebungstemperatur von 20-21°C bei einem 12 h-Licht-Dunkel-Rhythmus (8.00 Uhr/20.00 Uhr) mit freiem Zugang zu Futter und Wasser gehalten. Die Narkose der Mäuse erfolgte mit 1% Isofluran in 69% N20 und 30% 02 mit einem Narkoseverdampfer. Die Tiere wurden einer 30 min Fliamentokklusion der Arteria cerebri media (MCAo) unterworfen, wobei die Körpertemperatur und der regionale cerebrale Blutfluss wie beschrieben gemessen wurden (Endres et al., 1998). […]

CN1CCN2c3ncccc3Cc3ccccc3C2C1 (racemic) [Mirtazapin, (RS)-(±)-2-Methyl-1,2,3,4,10,14b-hexahydropyrazino [2,1-a]pyrido[2,3-c][2]benzazepin]
Ergebnisse (overall outcome in the MCAo model): entsprachen denjenigen, die mit Citalopram erreicht wurden
